Data set [1] relates to MDA-MB-231. Description: Antiproliferative activity against human MDA-MB-231 cells assessed as inhibition of cell growth incubated for 72 hrs by CCK8 assay. The format is functional, cell-based. The conditions noted are these: MDA-MB-231, 72 h. In general terms: Tetrazolium assays rely on reduction of a dye to a coloured formazan, in cell work by metabolically active cells.

The test system of another data set is A549. In words: Antiproliferative activity against human A549 cells assessed as inhibition of cell growth incubated for 72 hrs by CCK8 assay. It counts as functional, cell-based. Particulars: A549, 72 h.
A short description of data set [2]: Antiproliferative activity against human MCF-10A cells assessed as inhibition of cell growth incubated for 72 hrs by CCK8 assay. It counts as toxicity, cell-based.
The test system of another data set is BGC-823. In words: Antiproliferative activity against human BGC-823 cells assessed as inhibition of cell growth incubated for 72 hrs by CCK8 assay. It counts as functional, cell-based. The conditions noted are these: BGC-823, 72 h.
Data set [3] is described as follows: Selectivity index, ratio of IC50 for antiproliferative activity against human MCF-10A cells to IC50 for antiproliferative activity against human MDA-MB-231 cells. It counts as toxicity, cell-based. The conditions noted are these: MCF-10A cells and MDA-MB-231 cells, read-out: Ratio IC50.
The test system of a further data set is MCF7. Description: Antiproliferative activity against human MCF7 cells assessed as inhibition of cell growth incubated for 72 hrs by CCK8 assay. It counts as functional, cell-based. Particulars: MCF7, 72 h.
The subject of the next data set is PC-3. Description: Antiproliferative activity against human PC-3 cells assessed as inhibition of cell growth incubated for 72 hrs by CCK8 assay. It counts as functional, cell-based. The conditions noted are these: PC-3, 72 h.
The test system of data set [4] is MDA-MB-231. In words: Antiproliferative activity against human MDA-MB-231 cells assessed as inhibition of cell growth incubated for 72 hrs by SRB assay. It counts as functional, cell-based. Particulars: MDA-MB-231, 72 h. A general note: The SRB assay estimates cell density from bound dye.

Some results are limits rather than exact numbers.

A word on the IC50: it is the concentration that gives 50% inhibition. `COc1ccc(C2OCCc3c2[nH]c2ccccc32)cc1` (stereo unspecified): the IC50 with MDA-MB-231 [1] amounted to 10.8 µM; in the data set with A549 it was 18.9 µM; in the data set with BGC-823, 15.6 µM; in the data set on MCF7, 16.6 µM; with PC-3, 17.8 µM. Also, in data set [2], the IC50 at 72 h was 35.9 µM. Further, the selectivity ratio in data set [3] was 3.32.
As to `c1ccc(-c2ccc(C3OCCc4c3[nH]c3ccccc43)cc2)cc1` (stereo unspecified), the IC50 in the data set with MDA-MB-231 [1], in the data set on A549, in the data set on BGC-823, in the data set with MCF7 and in the data set with PC-3 was greater than 20 µM in each case.
As for `COc1cccc(C2OCCc3c2[nH]c2ccccc32)c1` (stereo unspecified), the IC50 with MDA-MB-231 [1] is 15.3 µM; in the data set with A549 it was greater than 20 µM; in the data set with BGC-823, greater than 20 µM; in the data set on MCF7 it was 18 µM; in the data set on PC-3, greater than 20 µM. Moreover, the IC50 at 72 h in data set [2] was found to be 40.8 µM. For the same molecule, in data set [3], the selectivity ratio is 2.67.
`COc1ccc(C2OCCc3c2[nH]c2ccccc32)cc1OC` (stereo unspecified): the IC50 in the data set with MDA-MB-231 [1] was 17.8 µM; in the data set on A549, greater than 20 µM; with BGC-823, greater than 20 µM; in the data set with MCF7, greater than 20 µM; in the data set on PC-3 it was 18.1 µM. Further, in data set [2], the IC50 at 72 h was determined as 40.4 µM. Also, the selectivity ratio in data set [3] turned out to be 2.27.
Turning to `COc1ccccc1C1OCCc2c1[nH]c1ccccc21` (stereo unspecified), the IC50 with MDA-MB-231 [1], in the data set on A549, in the data set with BGC-823, in the data set on MCF7 and with PC-3 was greater than 20 µM each time.
Turning to `c1ccc2cc(C3OCCc4c3[nH]c3ccccc43)ccc2c1` (stereo unspecified), the IC50 in the data set on MDA-MB-231 [1] was greater than 20 µM; in the data set on A549, greater than 20 µM; with BGC-823, 17.8 µM; with MCF7, greater than 20 µM; in the data set with PC-3 it was greater than 20 µM.
On to `COc1ccc(C2OCCc3c2[nH]c2ccc(Br)cc32)cc1` (stereo unspecified), for which the IC50 in the data set with MDA-MB-231 [1] was 16.5 µM; with A549 it was greater than 20 µM; in the data set on BGC-823, greater than 20 µM; with MCF7 it was greater than 20 µM; in the data set with PC-3 it was greater than 20 µM. For the same molecule, the IC50 at 72 h in data set [2] was determined as 45.1 µM. The selectivity ratio in data set [3] is 2.42.
For the molecule `Clc1ccc(C2OCCc3c2[nH]c2ccccc32)cc1` (stereo unspecified), the IC50 with MDA-MB-231 [1] worked out at 13.1 µM; in the data set with A549, 17.6 µM; in the data set on BGC-823 it was 12.3 µM; in the data set on MCF7, 15.8 µM; in the data set with PC-3, 12.8 µM. The IC50 at 72 h in data set [2] came to 35.4 µM.
Regarding `CC(=O)Oc1ccc(C2OCCc3c2[nH]c2ccccc32)cc1` (stereo unspecified), the IC50 in the data set with MDA-MB-231 [1] was greater than 20 µM; in the data set with A549, greater than 20 µM; with BGC-823, greater than 20 µM; in the data set on MCF7, 19.4 µM; with PC-3 it was greater than 20 µM.
Consider `COc1ccc2cc(C3OCCc4c3n(C)c3ccccc43)ccc2c1` (stereo unspecified), for which the IC50 is 11.6 µM in the data set on MDA-MB-231 [1]; 17.5 µM in the data set on A549; 18.1 µM in the data set with BGC-823; 12.7 µM with MCF7; 16.7 µM in the data set on PC-3. In addition, the IC50 at 72 h in data set [2] amounted to 30 µM. Besides, in data set [3], the selectivity ratio was 3.35.
With `COc1ccc(C2OCCc3c2[nH]c2ccccc32)c(OC)c1OC` (stereo unspecified), the IC50 was greater than 20 µM in the data set on MDA-MB-231 [1]; greater than 20 µM in the data set with A549; greater than 20 µM in the data set with BGC-823; greater than 20 µM with MCF7; 19.7 µM with PC-3.
Turning to `Cc1cccc(C2OCCc3c2[nH]c2ccccc32)c1` (stereo unspecified), the IC50 in the data set with MDA-MB-231 [1], in the data set on A549, in the data set with BGC-823, in the data set on MCF7 and in the data set with PC-3 was greater than 20 µM throughout.
`COc1cc(C2OCCc3c2[nH]c2ccccc32)cc(OC)c1OC` (stereo unspecified): the IC50 in the data set on MDA-MB-231 [1] was 13.5 µM; in the data set with A549, 19 µM; in the data set with BGC-823 it was 18.3 µM; in the data set with MCF7, 18.5 µM; with PC-3, 13.9 µM. The IC50 at 72 h in data set [2] amounted to 46.2 µM.
With `COc1ccc(C2OCCc3c2[nH]c2ccc(OC)cc32)cc1` (stereo unspecified), the IC50 with MDA-MB-231 [1] is 16.9 µM; in the data set with A549, greater than 20 µM; in the data set with BGC-823, greater than 20 µM; in the data set on MCF7, greater than 20 µM; in the data set with PC-3 it was greater than 20 µM. Also, the IC50 at 72 h in data set [2] came to 51.9 µM. Also, the selectivity ratio in data set [3] was 3.07.
On to `COc1ccc2cc(C3OCCc4c3[nH]c3ccccc43)ccc2c1` (stereo unspecified), for which the IC50 was 4.59 µM with MDA-MB-231 [1]; 15.4 µM in the data set on A549; 13.2 µM with BGC-823; 12.2 µM in the data set on MCF7; 12.6 µM with PC-3. For the same molecule, the IC50 at 72 h in data set [2] worked out at 21.9 µM. Besides, the selectivity ratio in data set [3] is 4.77.
With `c1ccc(C2OCCc3c2[nH]c2ccccc32)cc1` (stereo unspecified), the IC50 in the data set with MDA-MB-231 [1], in the data set on A549, with BGC-823, with MCF7 and with PC-3 was greater than 20 µM each time.
Turning to `Cc1ccc(C2OCCc3c2[nH]c2ccccc32)cc1` (stereo unspecified), the IC50 was greater than 20 µM in the data set with MDA-MB-231 [1]; greater than 20 µM in the data set with A549; greater than 20 µM in the data set with BGC-823; greater than 20 µM in the data set on MCF7; 18.2 µM with PC-3.
`Fc1ccc(C2OCCc3c2[nH]c2ccccc32)cc1` (stereo unspecified): the IC50 in the data set with MDA-MB-231 [1] was found to be 6.8 µM; in the data set on A549 it was 19.4 µM; with BGC-823 it was 14.7 µM; in the data set with MCF7 it was 7.05 µM; in the data set with PC-3, 6.21 µM. For the same molecule, the IC50 at 72 h in data set [2] was 32 µM. Besides, the selectivity ratio in data set [3] was found to be 6.8.
In the case of `COc1ccc2cc(C3OCCc4c3n(Cc3ccccc3)c3ccccc43)ccc2c1` (stereo unspecified), the IC50 worked out at 15.8 µM in the data set with MDA-MB-231 [1]; 19.9 µM in the data set with A549; 19.7 µM in the data set on BGC-823; 16.5 µM in the data set with MCF7; 14.8 µM in the data set on PC-3. Besides, in data set [2], the IC50 at 72 h came out at 41.4 µM. Further, in data set [3], the selectivity ratio is 2.63.
For the molecule `C[C@@H](Nc1cc(F)cc(F)c1)c1cc(C(=O)N(C)C)cc2c(=O)cc(N3CCOCC3)oc12` [AZD-8186], the IC50 with MDA-MB-231 [4] amounted to 6.99 µM.
